Where “and” joins values, the source holds several entries; their conditions need not be identical. Equal entries are not always repeated.
Tests used:
[1] = system: HEK293; experiment: Crystal violet cytotoxicity assay, HEK293; assay type: cell-based; conditions: Homo sapiens, 48 h incubation, triplicate
Method: (§1) FIG. 16 illustrates dose vs response curves of carbolines 18ac, 18bc, 18da and 18fa in HeLa, MCF-7, HEK293, A431 and A549 cell lines for 48 h incubation. IC50 values were determined by standard crystal violet assay in triplicate, according to the embodiments as disclosed herein. In vitro studies: The cytotoxicity of novel carboline derivatives 18ac, 18bc, 18da and 18fa were tested through standard crystal violet assay on human malignant cell lines such as HeLa, MCF-7, HEK293, A431 and A549. Cells were plated in a 96 well plate (1800 cells per well) and incubated for 48 h at 37° C. under 5% CO2. At 50% confluency, cells were incubated with a series of concentrations (0.1 μM, 0.25 μM, 0.5 μM, 1 μM, 2.5 μM, 5 μM, 10 μM, 25 μM, 50 μM and 100 μM) of the carbolines 18ac, 18bc, 18da and 18fa, respectively, for 48 h.
(§2) Procedure for cytotoxicity assay of carbolines in cancer cell lines: For this purpose, carbolines 18ac, 18bc, 18da and 18fa were subjected to a standard cell viability study (Crystal Violet assay) for examining anticancer activity against various human cancer cell lines such as HeLa, MCF-7, HEK293, A431 and A549. Crystal Violet is a triarylmethane dye which stains adhered cells by binding to the […]. The amount of Crystal Violet stain in the assay is directly proportional to the live cell biomass adhered on the plate after repeated washing. The above human cancer cell lines were plated in a 96-well tissue culture plate (1800 cells/well,) and incubated for 48 h in RPMI 1640 medium (volume≥100 μL/well), supplemented with 10% heat inactivated fetal bovine serum (HIFBS) and 1% Penicillin-Streptomycin antibiotic at 37° C., 5% CO2. Once the monolayer achieved 50% confluency/well, spent medium was aspirated and replaced with fresh medium≥100 μL/well, supplemented with increasing concentrations of carbolines 18ac, 18bc, 18da and 18fa (0.1 μM, 0.25 μM, 0.5 μM, 1 μM, 2.5 μM, 5 μM, 10 μM, 25 μM, 50 μM and 100 μM), respectively, and incubated for 48 h, at 37° C., 5% CO2. For positive control, 40% DMSO in culture medium was added to three wells and incubated under identical conditions. […] Finally, optical density of each well was measured at 570 nm (OD570) using Synergy H1 multimode plate reader (BioTek Instruments, Inc., Winooski, Vt., USA). The average background OD570 of empty wells was measured and subtracted from OD570/well on the plate. The percentage of treated, viable cells (attached) was determined and a dose vs response curve was plotted as semi-log[conc] vs percentage of normalized cell viability using GraphPad Prism v. […] The half maximal inhibitory concentration (IC50) was calculated and shown in Table 3 for carbolines 18ac, 18bc, 18da and 18fa against various human cancer cell lines (FIG. 16).

[2] = system: MCF-7; experiment: Crystal violet cytotoxicity assay, MCF-7; assay type: cell-based; conditions: Homo sapiens, MCF7, 48 h incubation, triplicate
Method: as §1, §2

[3] = system: HeLa cells; experiment: Live-cell confocal imaging of cell uptake; assay type: cell-based, human; conditions: 3 h incubation, confocal microscopy
Method: FIG. b 17 illustrates confocal microscopic studies (λex=405 nm; collection range=420-470 nm) for uptake of 18ac in HeLa cells, according to the embodiments as disclosed herein. • a) Confocal fluorescent image of HeLa cells after 3 h incubation with 10 μM concentration of 18ac (20× magnification, 2× zoom); • b) DIC image of HeLa cells • c) Overlay of (a) and (b) • d) Confocal image of HeLa cells after 3 h incubation with 100 nM concentration of 18ac (20× magnification, 2× zoom) • e) DIC image of HeLa cells • f) Overlay of (d) and (e).
To further evaluate cell uptake of the novel carbolines, live-cell imaging experiment was performed. HeLa cells were plated in a 4-well confocal dish (cell count=10^4 cells per well) and incubated for 48 h at 37° C. under 5% CO2. After 3 h of incubation with 18ac (10 nM, 100 nM, 1 μM, 10 μM, and 100 μM), cellular uptake and distribution were monitored by using confocal microscopy (λex=405 nm; collection range=420-470 nm).

[4] = system: A549; experiment: Crystal violet cytotoxicity assay, A549; assay type: cell-based; conditions: Homo sapiens, 48 h incubation, triplicate
Method: as §1, §2

[5] = system: A431; experiment: Crystal violet cytotoxicity assay, A431; assay type: cell-based; conditions: Homo sapiens, A-431, 48 h incubation, triplicate
Method: as §1, §2

[6] = system: HeLa; experiment: Crystal violet cytotoxicity assay, HeLa; assay type: cell-based; conditions: Homo sapiens, 48 h incubation, triplicate
Method: as §1, §2

[7] = Stability in polar solvent (HRMS footnote); assay type: physicochemical; conditions: HRMS recording
[8] = system: Mycobacterium smegmatis; experiment: In vitro Mycobacterium strains killing assay, M. smegmatis; assay type: cell-based

COC(=O)c1cc2c(c(-c3cc4ccccc4n3C)n1)c1ccccc1n2C
melting point: 210 to 212 °C

CCOC(=O)c1cc2c(c(-c3cc4ccccc4n3C)n1)c1ccccc1n2C
melting point: 175 to 177 °C

COC(=O)c1cc2c(c(-c3cc4ccccc4n3Cc3ccccc3)n1)c1ccccc1n2Cc1ccccc1
melting point: 168 to 170 °C

COC(=O)c1cc2c(c(-c3cc4cc(OC)ccc4n3C)n1)c1cc(OC)ccc1n2C
melting point: 160 to 162 °C

COC(=O)c1cc2occc2c(-c2ccco2)n1
melting point: 95 to 97 °C

CC(C)(C)OC(=O)c1cc2occc2c(-c2ccco2)n1
melting point: 78 to 80 °C

COC(=O)c1cc2oc3ccccc3c2c(-c2cc3ccccc3o2)n1
melting point: 163 to 165 °C

CCOC(=O)c1cc2oc3ccccc3c2c(-c2cc3ccccc3o2)n1
melting point: 141 to 143 °C

CC(C)(C)OC(=O)c1cc2oc3ccccc3c2c(-c2cc3ccccc3o2)n1
melting point: 100 to 102 °C

COC(=O)c1cc2c(ccn2Cc2ccccc2)c(-c2cccn2Cc2ccccc2)n1
melting point: 134 to 136 °C

COC(=O)c1cc2c(ccn2S(=O)(=O)c2ccc(C)cc2)c(-c2cccn2S(=O)(=O)c2ccc(C)cc2)n1
melting point: 120 to 122 °C

COC(=O)c1cc2c(ccn2S(=O)(=O)c2ccccc2)c(-c2cccn2S(=O)(=O)c2ccccc2)n1
melting point: 104 to 106 °C

Cn1c(-c2nc(C(=O)OC(C)(C)C)cc3c2c2ccccc2n3C)cc2ccccc21 [18ac, Tert-butyl 5-methyl-1-(1-methyl-1H-indol-2-yl)-5H-pyrido[4,3-b]indole-3-carboxylate]
IC50 [1]: 2.29 µM
IC50 [2]: 5.59 µM
cellular uptake ([3]; 100 nM concentration): nominal uptake
cellular uptake ([3]; 10 μM concentration): Decent cytosolic uptake
IC50 [4]: 4.62 µM
IC50 [5]: 4.89 µM
melting point: 200 to 202 °C
IC50 [6]: 4.89 µM

CC(C)(C)OC(=O)c1cc2c(c(-c3cc4ccccc4n3Cc3ccccc3)n1)c1ccccc1n2Cc1ccccc1 [18bc, Tert-butyl 5-benzyl-1-(1-benzyl-1H-indol-2-yl)-5H-pyrido[4,3-b]indole-3-carboxylate]
IC50 [1]: 7.14 µM
IC50 [2]: 7.07 µM
IC50 [4]: 5.47 µM
IC50 [5]: 9.18 µM
melting point: 148 to 150 °C
IC50 [6]: 8.15 µM

COC(=O)c1cc2c(c(-c3cc4ccccc4n3Cc3ccc(OC)cc3)n1)c1ccccc1n2Cc1ccc(OC)cc1 [18da, Methyl 5-(4-methoxybenzyl)-1-(1-(4-methoxybenzyl)-1H-indol-2-yl)-5H-pyrido[4,3-b]indole-3-carboxylate]
IC50 [1]: 6.73 µM
IC50 [2]: 2.99 µM
IC50 [4]: 5.17 µM
IC50 [5]: 4.47 µM
melting point: 106 to 108 °C
IC50 [6]: 1.3 µM

COC(=O)C1=Cc2c(c3ccccc3n2S(=O)(=O)c2ccc(C)cc2)C(c2cc3ccccc3n2S(=O)(=O)c2ccc(C)cc2)N1 (stereo not shown) [18fa, Methyl 5-tosyl-1-(1-tosyl-1H-indol-2-yl)-2,5-dihydro-1H-pyrido[4,3-b]indole-3-carboxylate]
IC50 [1]: 4.98 µM
IC50 [2]: 3.71 µM
IC50 [4]: 4.98 µM
IC50 [5]: 3.58 µM
melting point: 205 to 207 °C
IC50 [6]: 1.07 µM

NC(=O)c1cc2c(ccn2Cc2ccccc2)c(-c2cccn2Cc2ccccc2)n1 [compound 11, 1-Benzyl-4-(1-benzyl-1H-pyrrol-2-yl)-1H-pyrrolo[3,2-c]pyridine-6-carboxamide]
stability in polar solvent [7]: unstable in polar solvent

Cc1ccc(-c2nc(COCc3cn(CCN4C(=O)C(=O)c5ccccc54)nn3)cc3oc(C)cc23)o1 [compound 26, 1-(2-(4-(((2-Methyl-4-(5-methylfuran-2-yl)furo[3,2-c]pyridin-6-yl)methoxy)methyl)-1H-1,2,3-triazol-1-yl)ethyl)indoline-2,3-dione]
concentration range in which active (antituberculosis activity) [8]: 70 to 100 µM and 50 to 100 µM

Source: patent US11427596B2, “Metal-free solvent-free synthesis of fused-pyrido heterocycles and biomedical applications” (Indian Institute of Technology Indore, priority 2019, dated 2022)
